Measurements: patent publication US7662404B2, “Transdermal delivery system for dried particulate or lyophilized peptides and polypeptides” (TransPharma Medical Ltd., priority 2002, dated 2010)
Several values for one entry are separate records, joined by “and”; a condition that tells them apart may be missing. Equal entries are not always repeated. Where two headings read alike, the source gives them in different places.

Columns and labels:
[1] = Plasma hPTH (1-34) after SC injection or printed patches (water) with ViaDerm in pigs (Example 11); assay type: in vivo; conditions: for bioavailability: read-out: % bioavailability cf. to S.C.
Experimental: Pigs (males, 10-12 kg, Large white) were treated as follows:
Group 1: 10 μg of hPTH (1-34) were injected subcutaneously (S.C.; total 3 pigs)
[…] Printed patches containing 50 μg hPTH (1-34) were placed over the treated area and covered with Tegaderm (3M Health Care, St. Paul, Minn.). Total delivery area=1.4 cm (total 3 pigs).
(§1) […] Printed patches containing 100 μg hPTH (1-34) were placed over the treated area and covered with Tegaderm. Total delivery area=1.4 cm (total 3 pigs).
as §1
hPTH (1-34) was dissolved in water and then printed on the patches. hPTH (1-34) concentrations in pig plasma were measured by an ELISA kit (Immutopics, San Clemente, Calif., USA).

[2] = Plasma hPTH (1-34) from different printed patch formulations in pigs (Example 12); assay type: in vivo
Experimental: The experiment was performed as follows: Group 1: Each pig underwent two ViaDerm applications (150 micro-channels/cm^2) on one site on the back. A 100 μg hPTH (1-34) printed patch was placed over the application area and covered with Tegaderm. Total delivery area=1.4 cm (total 3 pigs). Formulation: hPTH (1-34) in water for injection (WFI), pH=6. Group 2: Each pig underwent two ViaDerm applications (150 micro-channels/cm^2) on one site on the back. A 100 μg hPTH (1-34) printed patch was placed over the application area and covered with Tegaderm. Total delivery area=1.4 cm^2 (total 3 pigs). Formulation: hPTH (1-34): Sucrose (1:5.5) in 0.72% acetic acid, pH=4. Group 3: Each pig underwent two ViaDerm applications (150 micro-channels/cm^2) on one site on the back. A 100 μg hPTH (1-34) printed patch was placed over the application area and covered with Tegaderm. Total delivery area=1.4 cm^2 (total 3 pigs). Formulation: hPTH (1-34): Trehalose (1:11) in 0.4% citric acid, pH=4. Group 4: Each pig was injected SC with 0.2 ml (20 μg) of hPTH (1-34) diluted to a 100 μg/ml solution with saline (total 3 pigs).

[3] = tested on: plasma calcium ions and phosphorous; assay: Plasma calcium ions and phosphorus in women after hPTH (1-34) (Example 13); assay type: in vivo, human; conditions: four women, all transdermal and SC treatments
Experimental: (§2) Each female adult received five treatments of hPTH (1-34) with a minimum of 2 day clearance between treatments. The treatments were as follows: • 1. Three ViaDerm applications (final density of 300 micro-channels/cm^2) on one site of the upper arm. Two printed patches, each containing 100 μg hPTH (1-34), were placed over the application area (each for 6 hours). • 2. Two ViaDerm applications (final density of 150 micro-channels/cm^2) on one site of the upper arm. Two printed patches, each containing 200 μg hPTH (1-34), were placed over the application area. • 3. Three ViaDerm applications (final density of 300 micro-channels/cm^2) on one site of the upper arm. Two printed patches, each containing 200 μg hPTH (1-34), were placed over the application area. • 4. Subcutaneous (SC) injection of 20 μg hPTH (1-34) (FORTEO®, Teriparatide was purchased from Ely Lilly, Indianapolis, Ind., USA). • 5. SC injection of 60 μg hPTH (1-34) (FORTEO®).
(§3) Plasma hPTH (1-34), calcium ions and phosphate ions were determined by Eliza using commercial kits.

[4] = Plasma hPTH (1-34) in female adult healthy human volunteers, ViaDerm and printed patches or SC (Example 13); assay type: in vivo; design: AUC (individual subjects): unit not given here; conditions: for Cmax (individual subjects): women; for Cmax (individual subjects) / AUC (individual subjects): 12 h; for Cmax AVG: mean of 4 women
Experimental: Transdermal drug delivery study of hPTH (1-34) in four female adult healthy human volunteers was performed using ViaDerm and printed patches.
To evaluate the transdermal delivery of hPTH (1-34), printed patches containing 100 μg or 200 μg hPTH (1-34) (FORTEO®, Teriparatide purchased from Ely Lilly, Indianapolis, Ind., USA) were prepared. Patch area was 1.44 cm^2.
ViaDerm parameters: electrode array of 75 or 100 micro-channels/cm^2; ViaDerm was applied two or three times generating micro-channels at a density of 150 or 300 micro-channels/cm^2; Voltage: 290 volts, constant voltage; Burst length: 5000 μsec; Maximal current: 50 mA.
as §2, §3

[5] = T-1: 300 micro-channels/cm^2, 2 printed patches each 100 μg
[6] = T-2: 150 micro-channels/cm^2, 2 printed patches each 200 μg

SMILES: CC[C@H](C)[C@H](NC(=O)[C@H](CCC(=O)O)NC(=O)[C@H](CO)NC(=O)[C@@H](NC(=O)[C@@H](N)CO)C(C)C)C(=O)N[C@@H](CCC(N)=O)C(=O)N[C@@H](CC(C)C)C(=O)N[C@@H](CCSC)C(=O)N[C@@H](Cc1cnc[nH]1)C(=O)N[C@@H](CC(N)=O)C(=O)N[C@@H](CC(C)C)C(=O)NCC(=O)N[C@@H](CCCCN)C(=O)N[C@@H](Cc1cnc[nH]1)C(=O)N[C@@H](CC(C)C)C(=O)N[C@@H](CC(N)=O)C(=O)N[C@@H](CO)C(=O)N[C@@H](CCSC)C(=O)N[C@@H](CCC(=O)O)C(=O)N[C@@H](CCCN=C(N)N)C(=O)N[C@H](C(=O)N[C@@H](CCC(=O)O)C(=O)N[C@@H](Cc1c[nH]c2ccccc12)C(=O)N[C@@H](CC(C)C)C(=O)N[C@@H](CCCN=C(N)N)C(=O)N[C@@H](CCCCN)C(=O)N[C@@H](CCCCN)C(=O)N[C@@H](CC(C)C)C(=O)N[C@@H](CCC(N)=O)C(=O)N[C@@H](CC(=O)O)C(=O)N[C@H](C(=O)N[C@@H](Cc1cnc[nH]1)C(=O)N[C@@H](CC(N)=O)C(=O)N[C@@H](Cc1ccccc1)C(=O)O)C(C)C)C(C)C [hPTH (1-34)]
- Amount delivered ([1]; S.C. 10 μg): 10 µg
- AUC ([1]; male, Large white, pig, plasma, other: transdermal printed patch on ViaDerm-treated skin, 50 ug, printed patch 50 μg): 0.46 ng·h/mL
- Cmax ([1]; male, Large white, pig, plasma, other: transdermal printed patch on ViaDerm-treated skin, 50 ug, printed patch 50 μg (water), ViaDerm, back, read-out: Cmax): ~0.15 ng/mL
- AUC ([1]; male, Large white, pig, plasma, other: transdermal printed patch on ViaDerm-treated skin, 100 ug, patch 100 μg): 0.919 ng·h/mL
- Cmax ([1]; male, Large white, pig, plasma, other: transdermal printed patch on ViaDerm-treated skin, 100 ug, printed patch 100 μg (water), ViaDerm, back, read-out: Cmax): 0.32 ng/mL
- AUC ([1]; male, Large white, pig, plasma, other: transdermal printed patch on ViaDerm-treated skin, 200 ug, patch 200 μg): 1.6 ng·h/mL
- Cmax ([1]; male, Large white, pig, plasma, other: transdermal printed patch on ViaDerm-treated skin, 200 ug, printed patch 200 μg (water), ViaDerm, back, read-out: Cmax): ~0.32 ng/mL
- AUC ([1]; male, Large white, pig, plasma, sc, 10 ug, S.C. 10 μg): 0.365 ng·h/mL
- bioavailability ([1]; male, Large white, pig, plasma, sc, 10 ug, S.C. 10 μg (reference)): 100%
- Cmax ([1]; male, Large white, pig, plasma, sc, 10 ug, S.C. 10 μg, neck, read-out: Cmax): 0.374 ng/mL
- bioavailability ([1]; male, Large white, pig, plasma, sc, 50 ug, printed patch 50 μg): 25.2%
- bioavailability ([1]; male, Large white, pig, plasma, sc, 100 ug, patch 100 μg): 25.2%
- bioavailability ([1]; male, Large white, pig, plasma, sc, 200 ug, patch 200 μg): 21.9%
- Amount delivered ([1]; patch 100 μg): 225.18 µg
- Amount delivered ([1]; patch 200 μg): 43.84 µg
- Amount delivered ([1]; printed patch 50 μg): 12.6 µg
- Cmax ([1]; printed patch 50 μg (water), ViaDerm, back): 0.136 ng/mL
- Cmax ([1]; printed patch 200 μg (water), ViaDerm, back): 0.317 ng/mL
- Amount delivered ([2]; S.C. 20 ug): 20 µg
- % bio ([2]; S.C. 20 ug (reference)): 100%
- AUC ([2]; pig, plasma, sc, S.C. 20 ug): 1.16 ± 0.761 ng·h/mL
- Cmax ([2]; pig, plasma, sc, S.C. 20 ug, neck): 1.08 ng/mL
- plasma concentrations of calcium ions [3]: elevation of calcium ions
- plasma concentrations of phosphorus [3]: decrease of phosphorous
- Cmax (individual subjects) ([4]; T-1: 300 micro-channels/cm^2, 2 printed patches each 100 μg (dose 200 ug)): 0.094366 ng/mL and 0.394054 ng/mL and 0.437693 ng/mL and 0.39756 ng/mL
- AUC (individual subjects) [4, 5]: 346 and 1340 and 1097 and 1067
- Cmax AVG [4, 5]: 0.330918 ng/mL
- Cmax (individual subjects) ([4]; T-2: 150 micro-channels/cm^2, 2 printed patches each 200 μg (dose 400 ug)): 0.072528 ng/mL and 0.463893 ng/mL and 1.293464 ng/mL and 0.739311 ng/mL
- AUC (individual subjects) [4, 6]: 398 and 1498 and 3743 and 2128
- Cmax AVG [4, 6]: 0.642299 ng/mL
